Data: PubChem BioAssay (NCI)
Several values for one entry are separate records, joined by “and”; a condition that tells them apart may be missing. Equal values may be shown once.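 Grown in 96-well plates, cells were treated for 48 hours with each compound at five concentrations. Insufficient inhibition: endpoint recorded as highest concentration tested. GI50 = concentration required for 50% inhibition of growth. TGI is the concentration that stops growth completely.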

How the values were obtained:
Assay in all cases: growth of human tumour cells (NCI), 48 h
SF-539 CNS = system: SF-539 CNS
KM12 colon = system: KM12 colon
OVCAR-8 ovarian = system: OVCAR-8 ovarian
SK-MEL-2 melanoma = system: SK-MEL-2 melanoma
ACHN renal = system: ACHN renal
SK-MEL-5 melanoma = system: SK-MEL-5 melanoma
HS 578T breast = system: HS 578T breast
NCI-H460 lung = system: NCI-H460 lung
A549 NSCLC = system: A549 NSCLC
U251 CNS = system: U251 CNS

Structure (SMILES)	GI50 (SF-539 CNS)	TGI (SF-539 CNS)	GI50 (KM12 colon)	TGI (KM12 colon)	GI50 (OVCAR-8 ovarian)	TGI (OVCAR-8 ovarian)	GI50 (SK-MEL-2 melanoma) [µM]	TGI (SK-MEL-2 melanoma)	GI50 (ACHN renal) [µM]	TGI (ACHN renal)	GI50 (SK-MEL-5 melanoma) [µM]	TGI (SK-MEL-5 melanoma)	GI50 (HS 578T breast) [µM]	TGI (HS 578T breast) [µM]	GI50 (NCI-H460 lung)	TGI (NCI-H460 lung)	GI50 (A549 NSCLC)	TGI (A549 NSCLC)	GI50 (U251 CNS)	TGI (U251 CNS)
C=CCCCC(O)c1ccc(C(O)c2cnc3ccccc3c2)o1 (centres undefined)	27.9 µM	82.5 µM	28.1 µM	77.9 µM	26.7 µM	72 µM	34.1	> 100 µM	25.4	61.6 µM	9.52	22.4 µM	22.3	> 100	26.9 µM	> 100 µM	31 µM	> 100 µM	29.9 µM	> 100 µM
CC(=O)Nc1ccc(Cc2ccc3[nH]c(=O)cc(C)c3c2)cc1		> 100 µM		> 100 µM		> 100 µM		77.7 µM		> 100 µM		> 100 µM		> 100		> 100 µM		> 100 µM		> 100 µM
COC(=O)[C@H](C)[C@@H]1CC[C@](C)(CCC2=C(C)CCCC2(C)C)OO1		> 25 µM		> 25 µM		> 25 µM		> 25 µM		> 25 µM		> 25 µM		> 25		> 25 µM		> 25 µM		> 25 µM
Cc1cc(Cl)ccc1Nc1nc2c(s1)C(=O)c1ccccc1C2=O		16 µM		10.7 µM		11.6 µM		22.7 µM		10.3 µM		3.34 µM		5.79		9.5 µM		21.4 µM		12.7 µM
C=C(C)C1CCC2(C(=O)O)CCC3(C)C(CCC4C5(C)CCC(O)C(C)(C)C5CCC43C)C12 (centres undefined)		16.7 µM		20.3 µM		20.7 µM		32.2 µM		21.1 µM		20.3 µM		55.7		39 µM		24.1 µM		22 µM
Cc1nc2cc(Nc3nc(Nc4ccc(F)cc4)nc(N4CCCC4)n3)ccc2n1Cc1ccccc1	1.79 µM	3.32 µM	1.86 µM	3.51 µM	2.15 µM	4.79 µM	1.69	3.33 µM	2.19	5.41 µM	1.66	3.09 µM	2.23	6.67	1.82 µM	3.44 µM	2.05 µM	4.63 µM	1.66 µM	3.36 µM
Clc1ccc(Nc2ncnc3c2sc2ncccc23)c(Cl)c1	0.0225 µM	7.37 µM	3.39 µM	> 100 µM	< 0.0135 µM	> 100 µM	30.7	> 100 µM	< 0.01	3.95 µM	0.0254	> 100 µM	> 100	> 100	< 0.01 µM	> 100 µM	< 0.01 µM	> 100 µM	0.0152 µM	> 100 µM
O=C(Nc1nc(-c2ccccc2Cl)cs1)c1cc(-c2ccc(Cl)cc2)nc2ccc(Cl)cc12	2.12 µM	8.31 µM	3.5 µM	69.5 µM	1.19 µM	16.2 µM	7.81	> 100 µM	3.84	78.2 µM	2.51	9.07 µM	2.67	25.7	31.8 µM	> 100 µM	39.2 µM	> 100 µM	3.42 µM	28.6 µM
Oc1[nH]c2ccccc2c1/C=c1/ccc2c(c1)N=C(c1cc(F)cc(F)c1)N=2	13.6 µM	31.4 µM	4.36 µM	19 µM	4.56 µM	33.3 µM	5.71	20.8 µM	7.39	21.3 µM	5.82	19.1 µM	5.08	31.9	7.04 µM	22.8 µM	4.65 µM	23.7 µM	3.89 µM	17.6 µM
CCN(CC)CCNC(=O)C(Cl)=C1C(Cl)=C(Cl)C(Cl)=C1Cl	4.33 µM	53.1 µM	2.75 µM	10.6 µM	2.81 µM	> 100 µM	3	11.6 µM	3.35	24.6 µM	2.98	11.1 µM	3.01	25.3	2.71 µM	11.1 µM	4.22 µM	76.9 µM	2.85 µM	10.2 µM
COc1ccc(Nc2ncccc2C(=O)NCc2cn(Cc3cccc(Oc4ccccc4)c3)nn2)c(OC)c1	2.43 µM	19.2 µM	1.11 µM	> 100 µM	3.81 µM	> 100 µM	5.03	> 100 µM	3.94	> 100 µM	0.635	7.93 µM	9.52	> 100	3.19 µM	> 100 µM	3.7 µM	> 100 µM	3.19 µM	> 100 µM
COc1cccc(/C=C2\CCc3ccccc3C2=O)c1	16.4 µM	36.9 µM	6.31 µM	18.8 µM	12.4 µM	60.7 µM	12.9	28.2 µM	10.2	25.3 µM	10.7	23 µM	3.33	17.9	17 µM	35 µM	20.1 µM	60.1 µM	5.3 µM	20.2 µM
O=C(NC(Cc1ccccc1)C(=O)CCl)OCc1ccccc1 (centres undefined)	3 µM	10.3 µM and 16.8 µM		22.2 µM and 21.7 µM		15 µM and 17.6 µM	1.96	4.89 µM and 22 µM	3.72	13.3 µM and 21.8 µM	4.38	16.9 µM and 26.4 µM	6.23	36	4.34 µM	17.4 µM and 19.8 µM	13.9 µM	33.9 µM and 36.2 µM	6.97 µM	19.6 µM and 22.8 µM
CCN(CC)CC(O)c1cc(-c2ccc(Cl)cc2)nc2cc(Cl)ccc12 (centres undefined)	2.03 µM	4.63 µM	1.7 µM	3.18 µM	1.96 µM	4.12 µM	1.92	3.63 µM	1.64	3.39 µM	1.61	2.99 µM	2.51	7.32	1.64 µM	3.17 µM	1.9 µM	3.63 µM	1.75 µM	3.34 µM
O=C(Nc1ccc(Cl)cc1)c1cc2ccccc2cc1OP(=O)(O)O	4.4 µM	19.2 µM	3.14 µM	13.7 µM	4.73 µM	> 100 µM	3.58	24.4 µM	3.04	49.3 µM	2.89	8.83 µM	2.96	19.8	3.43 µM	16.8 µM	4.85 µM	> 100 µM	3.74 µM	21.3 µM
O=C(O)c1c[nH]c2c(ccc3[nH]cc(C(=O)O)c(=O)c32)c1=O		> 100 µM		> 100 µM		> 100 µM		> 100 µM		> 100 µM		> 100 µM		> 100		> 100 µM		> 100 µM		> 100 µM
Nc1nc(Cl)nc2c1ncn2C1OC(CO)C(O)C1O (centres undefined)	> 90.1 µM	> 100 µM	> 100 µM	> 100 µM	0.403 µM	> 100 µM	> 100	> 100 µM	3.98	> 100 µM	2.89	> 100 µM	> 100	> 100	12.6 µM	> 100 µM	4.41 µM	> 100 µM	13.2 µM	> 100 µM
N/C(=N\C(N)=N\c1nc2ccccc2s1)c1ccnc(Br)c1	4.67 µM	95 µM	5.19 µM	> 100 µM	10.3 µM	> 100 µM	3.81	> 100 µM	5.22	> 100 µM	3.49	> 100 µM	3.76	46	4.33 µM	> 100 µM	22.1 µM	> 100 µM	5.63 µM	48.9 µM
COC1C(C)OC(OC2CC(C)(O)Cc3cc4c(c(O)c32)C(=O)c2c(O)cc3c(c2C4=O)OC2OC3(C)C(O)C(N(C)C)C2O)C(OC)C1(C)OC (centres undefined)	0.038 µM and 0.0171 µM		0.0639 µM and 0.0289 µM		0.0416 µM and 0.0176 µM	2.79 µM and 1.37 µM	0.0303	0.137 µM and 0.0386 µM	0.216					0.000563	0.0303 µM and 0.0155 µM	1.86 µM and 0.233 µM	0.0835 µM and 0.0476 µM		0.0459 µM and 0.016 µM	
COc1ccc2c(c1)C(=O)c1c-2c(OCCN2CCCCC2)nc2ccc(OC)cc12	0.693 µM	12.4 µM	0.585 µM	2.1 µM	0.601 µM	4.67 µM	12.4	28.6 µM	0.425	3.26 µM	1.92	5.61 µM	4.5	22.8	0.286 µM	1.1 µM	0.674 µM	2.16 µM	0.513 µM	1.79 µM
COc1cc(-c2ccc(=O)oc2C#Cc2ccccc2)cc(OC)c1OC	12.7 µM	> 100 µM	34.6 µM	> 100 µM	52.5 µM	> 100 µM	23.2	> 100 µM	14.8	90.2 µM	3.49	> 100 µM	6.02	48.4	> 100 µM	> 100 µM	3.22 µM	91.1 µM	8.09 µM	34.4 µM
ClCc1ccc(-c2ccc(Cn3cnc4c(Cl)ncnc43)cc2)cc1	1.52 µM	3.14 µM	1.59 µM	3.56 µM	2.8 µM	8.95 µM	3.7	> 100 µM	1.5	2.89 µM	2.49	7.17 µM	3.06	> 100	0.486 µM	2.65 µM	4.31 µM	17.4 µM	1.81 µM	3.95 µM
O=C(O)C1C2CCC(O2)C1C(=O)NCc1cccnc1 (centres undefined)		> 100 µM		> 100 µM				> 100 µM		> 100 µM		> 100 µM		> 100		> 100 µM		> 100 µM		> 100 µM
Cn1cc(-c2ccc3nnc(C(F)(F)c4ccc5ncccc5c4)n3n2)cn1	47.5 µM	> 100 µM	43.6 µM	> 100 µM	66.1 µM	> 100 µM	50.6	> 100 µM	32.8	> 100 µM	43.2	> 100 µM	34.2	> 100	59.6 µM	> 100 µM	60.2 µM	> 100 µM	58.4 µM	> 100 µM
CCCCCCn1c2c(c3c(O)cccc31)C(=O)c1ccccc1-2	18 µM	35.7 µM	17.6 µM	34.4 µM	17.4 µM	36.7 µM	18.9	37.9 µM	16.6	30.3 µM	19.4	34.6 µM	24.2	52.6	17.6 µM	35.8 µM	16.4 µM	34.5 µM	17.8 µM	32.9 µM
O=C1Nc2c(ccc(Cl)c2Cl)/C1=C\c1cc(C(F)(F)F)cc(C(F)(F)F)c1	6.95 µM	13.8 µM	1.42 µM	5.53 µM	5.75 µM	16 µM	4.11	10.9 µM	3.18	11.3 µM	2.67	8.45 µM	1.21	3.18	2.45 µM	7.68 µM	4.81 µM	13 µM	1.15 µM	3.22 µM
CS(=O)(=O)c1ccc(-c2cnc(NCc3ccco3)n3cnnc23)cc1	> 100 µM	> 100 µM	> 100 µM	> 100 µM	> 100 µM	> 100 µM	66.6	> 100 µM	> 100	> 100 µM	31.7	> 100 µM	> 100	> 100	> 100 µM	> 100 µM	> 100 µM	> 100 µM	> 100 µM	> 100 µM
CSc1nc(SC)c2c(C)cn(C3OC(C)C(O)C(O)C3O)c2n1 (centres undefined)		> 100 µM		> 100 µM		> 100 µM		> 100 µM		> 100 µM		> 100 µM		> 100		> 100 µM		> 100 µM		> 100 µM
